System: MV-4-11 cells
Test: Gene expression microarray analysis (Affymetrix PrimeView) and GSEA
Format: cell-based, human
Set-up: RFU PODN (11730768_x_at) / Fold change /veh PODN (11730768_x_at) / RFU LINC00158 (11744669_a_at) / Fold change /veh LINC00158 (11744669_a_at) / RFU DUSP10 (11751237_a_at) / Fold change /veh DUSP10 (11751237_a_at) / RFU ID3 (11757404_x_at) / Fold change /veh ID3 (11757404_x_at) / RFU PLEKHG5 (11737974_s_at) / Fold change /veh PLEKHG5 (11737974_s_at) / RFU LRRC4B (11730491_at) / Fold change /veh LRRC4B (11730491_at) / RFU GIMAP4 (11747438_a_at) / Fold change /veh GIMAP4 (11747438_a_at) / RFU KRT8 (11758183_x_at) / Fold change /veh KRT8 (11758183_x_at) / RFU CNN1 (11734310_a_at) / Fold change /veh CNN1 (11734310_a_at) / RFU VPS37D (11726825_at) / Fold change /veh VPS37D (11726825_at) / RFU C10orf10 (11716522_x_at) / Fold change /veh C10orf10 (11716522_x_at) / RFU KIR2DL2 /// KIR2DL4 /// KIR2DL5A /// KIR2DL5B /// KIR2DS1 /// KIR2DS2 /// KIR2DS3 /// KIR2DS4 /// KIR3DL3 /// KIR3DL3 /// KIR3DS1 (11738374_at) / Fold change /veh KIR2DL2 /// KIR2DL4 /// KIR2DL5A /// KIR2DL5B /// KIR2DS1 /// KIR2DS2 /// KIR2DS3 /// KIR2DS4 /// KIR3DL3 /// KIR3DL3 /// KIR3DS1 (11738374_at) / RFU C1QL1 (11718748_at) / Fold change /veh C1QL1 (11718748_at) / RFU TMPRSS4 (11747572_a_at) / Fold change /veh TMPRSS4 (11747572_a_at) / RFU HAMP (11756126_x_at) / Fold change /veh HAMP (11756126_x_at) / RFU RNFT2 (11725882_a_at) / Fold change /veh RNFT2 (11725882_a_at) / RFU NR4A2 (11747474_a_at) / Fold change /veh NR4A2 (11747474_a_at) / RFU ABCC12 (11746883_a_at) / Fold change /veh ABCC12 (11746883_a_at) / RFU TMEM136 (11760407_x_at) / Fold change /veh TMEM136 (11760407_x_at) / RFU CLDN22 /// WWC2 (11732394_at) / Fold change /veh CLDN22 /// WWC2 (11732394_at) / RFU HLA-DPB1 (11760878_x_at) / Fold change /veh HLA-DPB1 (11760878_x_at) / RFU SPINT1 (11716480_a_at) / Fold change /veh SPINT1 (11716480_a_at) / RFU GAP43 (11754022_s_at) / Fold change /veh GAP43 (11754022_s_at) / RFU A4GNT (11735810_at) / Fold change /veh A4GNT (11735810_at) / RFU PRB3 (11715151_x_at) / Fold change /veh PRB3 (11715151_x_at) / RFU TUBB4B (11761932_at) / Fold change /veh TUBB4B (11761932_at) / RFU CAPN14 (11732068_a_at) / Fold change /veh CAPN14 (11732068_a_at) / RFU TMCC2 (11721928_a_at) / Fold change /veh TMCC2 (11721928_a_at) / RFU IRGQ (11745062_a_at) / Fold change /veh IRGQ (11745062_a_at) / RFU FAM174B (11720279_a_at) / Fold change /veh FAM174B (11720279_a_at) / RFU TMPRSS4 (11748680_a_at) / Fold change /veh TMPRSS4 (11748680_a_at) / RFU FAM212B (11763350_a_at) / Fold change /veh FAM212B (11763350_a_at) / RFU PLEKHG5 (11743358_a_at) / Fold change /veh PLEKHG5 (11743358_a_at) / RFU ZSCAN30 (11745921_a_at) / Fold change /veh ZSCAN30 (11745921_a_at) / RFU CMKLR1 (11741424_a_at) / Fold change /veh CMKLR1 (11741424_a_at) / RFU LOC101060620 /// MAPK8IP1 (11723275_at) / Fold change /veh LOC101060620 /// MAPK8IP1 (11723275_at) / RFU SPTSSB (11747773_x_at) / Fold change /veh SPTSSB (11747773_x_at) / RFU PRSS12 (11739890_at) / Fold change /veh PRSS12 (11739890_at) / RFU BIN1 (11741810_x_at) / Fold change /veh BIN1 (11741810_x_at) / RFU WNT11 (11732464_a_at) / Fold change /veh WNT11 (11732464_a_at) / RFU C10orf10 (11716521_a_at) / Fold change /veh C10orf10 (11716521_a_at) / RFU C5orf56 (11738089_at) / Fold change /veh C5orf56 (11738089_at) / RFU CYB561 (11721691_x_at) / Fold change /veh CYB561 (11721691_x_at) / RFU ANKRD19P (11752326_a_at) / Fold change /veh ANKRD19P (11752326_a_at) / RFU OR2T12 /// OR2T33 /// OR2T8 (11738714_s_at) / Fold change /veh OR2T12 /// OR2T33 /// OR2T8 (11738714_s_at) / RFU VCAN (11748164_a_at) / Fold change /veh VCAN (11748164_a_at) / RFU JSRP1 (11732532_at) / Fold change /veh JSRP1 (11732532_at) / RFU KRTAP10-11 (11738290_x_at) / Fold change /veh KRTAP10-11 (11738290_x_at) / RFU MYO3A (11730013_a_at) / Fold change /veh MYO3A (11730013_a_at) / RFU EBF3 (11725865_a_at) / Fold change /veh EBF3 (11725865_a_at) / RFU CAMK2N1 (11719241_x_at) / Fold change /veh CAMK2N1 (11719241_x_at) / RFU C5orf56 (11738088_a_at) / Fold change /veh C5orf56 (11738088_a_at) / RFU OLFML3 (11715873_a_at) / Fold change /veh OLFML3 (11715873_a_at) / RFU LOC100653217 /// NTM (11731650_a_at) / Fold change /veh LOC100653217 /// NTM (11731650_a_at) / RFU MAPK11 (11762145_a_at) / Fold change /veh MAPK11 (11762145_a_at) / RFU FIZ1 (11724087_x_at) / Fold change /veh FIZ1 (11724087_x_at) / RFU OASL (11726364_x_at) / Fold change /veh OASL (11726364_x_at) / RFU SOX15 (11748057_x_at) / Fold change /veh SOX15 (11748057_x_at) / RFU CD79A (11719716_a_at) / Fold change /veh CD79A (11719716_a_at) / RFU HIST1H1D (11736915_at) / Fold change /veh HIST1H1D (11736915_at) / RFU CASKIN2 (11723855_a_at) / Fold change /veh CASKIN2 (11723855_a_at) / RFU LOC730098 (11760151_x_at) / Fold change /veh LOC730098 (11760151_x_at) / RFU OR4N2 (11742367_at) / Fold change /veh OR4N2 (11742367_at) / RFU PRRT2 (11749266_a_at) / Fold change /veh PRRT2 (11749266_a_at) / RFU SNX32 (11753110_a_at) / Fold change /veh SNX32 (11753110_a_at) / RFU CDHR5 (11726645_a_at) / Fold change /veh CDHR5 (11726645_a_at) / RFU RCAN1 (11760418_a_at) / Fold change /veh RCAN1 (11760418_a_at) / RFU FAM167A (11723789_a_at) / Fold change /veh FAM167A (11723789_a_at) / RFU FAM26E (11764081_at) / Fold change /veh FAM26E (11764081_at) / RFU ISYNA1 (11749810_s_at) / Fold change /veh ISYNA1 (11749810_s_at) / RFU ACY1 (11761880_at) / Fold change /veh ACY1 (11761880_at) / RFU 11764098_at / Fold change /veh 11764098_at / RFU SAMD14 (11745864_x_at) / Fold change /veh SAMD14 (11745864_x_at) / RFU NPB (11741838_a_at) / Fold change /veh NPB (11741838_a_at) / RFU TMPRSS6 (11731388_a_at) / Fold change /veh TMPRSS6 (11731388_a_at) / RFU KRTAP10-2 (11738614_at) / Fold change /veh KRTAP10-2 (11738614_at) / RFU ARHGAP8 /// PRR5-ARHGAP8 (11727945_x_at) / Fold change /veh ARHGAP8 /// PRR5-ARHGAP8 (11727945_x_at) / RFU KRTAP5-7 /// NADSYN1 (11734609_at) / Fold change /veh KRTAP5-7 /// NADSYN1 (11734609_at) / RFU RASL12 (11751679_a_at) / Fold change /veh RASL12 (11751679_a_at) / RFU CDKN2B (11736163_a_at) / Fold change /veh CDKN2B (11736163_a_at) / RFU PRF1 (11729649_at) / Fold change /veh PRF1 (11729649_at) / RFU, ZNF638 /// ZNF638-IT1 / Fold change vs veh, ZNF638 /// ZNF638-IT1 / RFU, PANK3 / Fold change vs veh, PANK3 / RFU, SH3YL1 / Fold change vs veh, SH3YL1 / RFU, ZEB2 / Fold change vs veh, ZEB2 / RFU, NRIP1 / Fold change vs veh, NRIP1 / RFU, PTTG1IP / Fold change vs veh, PTTG1IP / RFU, CAPN2 / Fold change vs veh, CAPN2 / RFU, MED14 / Fold change vs veh, MED14 / RFU, SNORA58 / Fold change vs veh, SNORA58 / RFU, C1orf63 / Fold change vs veh, C1orf63 / RFU, LRRFIP1 / Fold change vs veh, LRRFIP1 / RFU, NDUFAF7 / Fold change vs veh, NDUFAF7 / RFU, SLC12A2 / Fold change vs veh, SLC12A2 / RFU, IBTK / Fold change vs veh, IBTK / RFU, ESF1 / Fold change vs veh, ESF1 / Fold change vs veh, TMEM50B / RFU, TAOK1 / Fold change vs veh, TAOK1 / RFU, ACBD3 / Fold change vs veh, ACBD3 / RFU, TMA16 / Fold change vs veh, TMA16 / RFU, RWDD3 / Fold change vs veh, RWDD3 / RFU, BCAT1 / Fold change vs veh, BCAT1 / RFU, EDEM3 / Fold change vs veh, EDEM3 / RFU, TMEM33 / Fold change vs veh, TMEM33 / RFU, WDR75 / Fold change vs veh, WDR75 / RFU, AHCTF1 / Fold change vs veh, AHCTF1 / RFU, TFRC / Fold change vs veh, TFRC / RFU, ZDHHC17 / Fold change vs veh, ZDHHC17 / RFU, NOM1 / Fold change vs veh, NOM1 / RFU, ARL8B / Fold change vs veh, ARL8B / RFU, ZBTB11 / Fold change vs veh, ZBTB11 / RFU, TAMM41 / Fold change vs veh, TAMM41 / RFU, KIAA1704 /// LOC100996395 / Fold change vs veh, KIAA1704 /// LOC100996395 / RFU, ING1 / Fold change vs veh, ING1 / RFU, TRMT61B / Fold change vs veh, TRMT61B / RFU, FUBP3 / Fold change vs veh, FUBP3 / RFU, TP53 / Fold change vs veh, TP53 / RFU, TNKS2 / Fold change vs veh, TNKS2 / RFU, ZFP14 / Fold change vs veh, ZFP14 / RFU, ACTR2 / Fold change vs veh, ACTR2 / RFU, PPP3R1 / Fold change vs veh, PPP3R1 / RFU, PIK3R1 / Fold change vs veh, PIK3R1 / RFU, HNRNPA1 / Fold change vs veh, HNRNPA1 / RFU, RNF170 / Fold change vs veh, RNF170 / RFU, ZNF28 / Fold change vs veh, ZNF28 / RFU, RNGTT / Fold change vs veh, RNGTT / RFU, OGT / Fold change vs veh, OGT / RFU, BRD1 / Fold change vs veh, BRD1 / RFU, MARS / Fold change vs veh, MARS / RFU, ZNF655 / Fold change vs veh, ZNF655 / RFU, FAHD1 / Fold change vs veh, FAHD1 / RFU, BDP1 / Fold change vs veh, BDP1 / RFU, LRRCC1 / Fold change vs veh, LRRCC1 / RFU, ARID1A / Fold change vs veh, ARID1A / RFU, ZNF146 / Fold change vs veh, ZNF146 / RFU, ZNF330 / Fold change vs veh, ZNF330 / RFU, GPN3 / Fold change vs veh, GPN3 / RFU, C9orf123 / Fold change vs veh, C9orf123 / RFU, N4BP2L2 / Fold change vs veh, N4BP2L2 / RFU, ARFIP1 / Fold change vs veh, ARFIP1 / RFU, FAM179B / Fold change vs veh, FAM179B / RFU, BCL10 / Fold change vs veh, BCL10 / RFU, UHRF1BP1L / Fold change vs veh, UHRF1BP1L / RFU, BET1 / Fold change vs veh, BET1 / RFU, CNOT2 / Fold change vs veh, CNOT2 / RFU, ZNF268 / Fold change vs veh, ZNF268 / Fold change vs veh, ZNF507 / RFU, DGCR2 / Fold change vs veh, DGCR2 / RFU, WDSUB1 / Fold change vs veh, WDSUB1 / Fold change vs veh, HSP90B1 /// MIR3652 / RFU, ADSS / Fold change vs veh, ADSS / RFU, GK / Fold change vs veh, GK / RFU, ZNF148 / Fold change vs veh, ZNF148 / RFU, TAF9 / Fold change vs veh, TAF9 / RFU, SLC1A5 / Fold change vs veh, SLC1A5 / RFU, SLMO2 / Fold change vs veh, SLMO2 / RFU, ABCC4 / Fold change vs veh, ABCC4 / RFU, LOC101060439 /// RAP1B / Fold change vs veh, LOC101060439 /// RAP1B / RFU, RFX7 / Fold change vs veh, RFX7 / RFU, GTPBP10 / Fold change vs veh, GTPBP10 / RFU, CNEP1R1 / Fold change vs veh, CNEP1R1 / RFU, BIVM-ERCC5 /// ERCC5 / Fold change vs veh, BIVM-ERCC5 /// ERCC5 / RFU, ILF3 / Fold change vs veh, ILF3 / RFU 11762660_at / Fold change /veh 11762660_at / RFU VCAN (11757783_s_at) / Fold change /veh VCAN (11757783_s_at) / RFU DDX43 (11728927_at) / Fold change /veh DDX43 (11728927_at) / RFU KRT8 (11758188_x_at) / Fold change /veh KRT8 (11758188_x_at) / RFU NKD1 (11759106_at) / Fold change /veh NKD1 (11759106_at) / RFU SRD5A1 (11742802_a_at) / Fold change /veh SRD5A1 (11742802_a_at) / RFU TPSAB1 /// TPSB2 (11721975_s_at) / Fold change /veh TPSAB1 /// TPSB2 (11721975_s_at) / RFU GSTM3 (11746129_a_at) / Fold change /veh GSTM3 (11746129_a_at) / RFU IL23R (11737362_x_at) / Fold change /veh IL23R (11737362_x_at) / RFU TMEM51 (11727254_a_at) / Fold change /veh TMEM51 (11727254_a_at) / RFU PIWIL2 (11732686_x_at) / Fold change /veh PIWIL2 (11732686_x_at) / RFU ORM1 (11744905_x_at) / Fold change /veh ORM1 (11744905_x_at) / RFU CCDC152 (11743942_at) / Fold change /veh CCDC152 (11743942_at) / RFU ECM1 (11717891_a_at) / Fold change /veh ECM1 (11717891_a_at) / RFU IL23R (11748794_a_at) / Fold change /veh IL23R (11748794_a_at) / RFU TNFAIP8L3 (11732012_x_at) / Fold change /veh TNFAIP8L3 (11732012_x_at) / RFU MBOAT4 (11741988_at) / Fold change /veh MBOAT4 (11741988_at) / RFU 11764193_at / Fold change /veh 11764193_at / RFU TMEM53 (11763286_at) / Fold change /veh TMEM53 (11763286_at) / RFU MAGEB2 (11727129_at) / Fold change /veh MAGEB2 (11727129_at) / RFU TMEM200A (11744735_a_at) / Fold change /veh TMEM200A (11744735_a_at) / RFU CCDC152 (11751479_a_at) / Fold change /veh CCDC152 (11751479_a_at) / RFU FAM211A (11726209_a_at) / Fold change /veh FAM211A (11726209_a_at) / RFU RGS16 (11746705_a_at) / Fold change /veh RGS16 (11746705_a_at) / RFU VCAN (11755009_s_at) / Fold change /veh VCAN (11755009_s_at) / RFU RHOB (11743442_s_at) / Fold change /veh RHOB (11743442_s_at) / RFU RGS16 (11720943_a_at) / Fold change /veh RGS16 (11720943_a_at) / RFU RGS16 (11720944_at) / Fold change /veh RGS16 (11720944_at) / RFU, VPS4B / Fold change vs veh, VPS4B / RFU, CREB1 / Fold change vs veh, CREB1 / RFU, DNAJC13 / Fold change vs veh, DNAJC13 / RFU, GNAQ / Fold change vs veh, GNAQ / RFU, CDK5R1 / Fold change vs veh, CDK5R1 / RFU, ZRANB3 / Fold change vs veh, ZRANB3 / RFU, CUL4A / Fold change vs veh, CUL4A / RFU, CCNY / Fold change vs veh, CCNY / RFU, UFL1 / Fold change vs veh, UFL1 / RFU, COG3 / Fold change vs veh, COG3 / RFU, DIAPH2 / Fold change vs veh, DIAPH2 / RFU, SKA2 / Fold change vs veh, SKA2 / RFU, AFF3 / Fold change vs veh, AFF3 / RFU, LMF1 / Fold change vs veh, LMF1 / RFU, IPO11 / Fold change vs veh, IPO11 / RFU, DFFB / Fold change vs veh, DFFB / RFU, FOXP1 / Fold change vs veh, FOXP1 / RFU, CARD8 / Fold change vs veh, CARD8 / RFU, STRN3 / Fold change vs veh, STRN3 / RFU, ADK / Fold change vs veh, ADK / RFU, RASSF2 / Fold change vs veh, RASSF2 / RFU, WIPF1 / Fold change vs veh, WIPF1 / RFU, LARP1B / Fold change vs veh, LARP1B / RFU, RASA1 / Fold change vs veh, RASA1 / RFU, RB1 / Fold change vs veh, RB1 / RFU, PPFIA1 / Fold change vs veh, PPFIA1 / RFU, MAT2A / Fold change vs veh, MAT2A / RFU, CCT5 / Fold change vs veh, CCT5 / RFU, WDR92 / Fold change vs veh, WDR92 / RFU, CUX1 / Fold change vs veh, CUX1 / RFU, TTC7A / Fold change vs veh, TTC7A / RFU, TMEM135 / Fold change vs veh, TMEM135 / RFU, DEPTOR / Fold change vs veh, DEPTOR / RFU, CPM / Fold change vs veh, CPM / RFU, DNAJB6 / Fold change vs veh, DNAJB6 / RFU, CACNA2D3 / Fold change vs veh, CACNA2D3 / RFU, DTX4 / Fold change vs veh, DTX4 / RFU, TFCP2 / Fold change vs veh, TFCP2 / RFU, GMCL1 /// GMCL1P1 / Fold change vs veh, GMCL1 /// GMCL1P1 / RFU, AEBP2 / Fold change vs veh, AEBP2 / RFU, SNHG1 /// SNORD22 /// SNORD25 /// SNORD26 /// SNORD27 /// SNORD28 /// SNORD29 /// SNORD31 / Fold change vs veh, SNHG1 /// SNORD22 /// SNORD25 /// SNORD26 /// SNORD27 /// SNORD28 /// SNORD29 /// SNORD31 / Fold change (Aza/veh), C12orf56 (ProbeSet 11735607_a_at) / Fold change (ACY-1035/veh), C12orf56 (ProbeSet 11735607_a_at) / Fold change (Aza/veh), FGFR1OP (ProbeSet 11751329_s_at) / Fold change (ACY-1035/veh), FGFR1OP (ProbeSet 11751329_s_at) / Fold change (Aza/veh), VPS36 (ProbeSet 11739960_a_at) / Fold change (ACY-1035/veh), VPS36 (ProbeSet 11739960_a_at) / RFU SYPL1 (11715823_x_at) / Fold change /veh SYPL1 (11715823_x_at) / RFU IGFBP7 (11715501_s_at) / Fold change /veh IGFBP7 (11715501_s_at) / RFU REEP3 (11722064_at) / Fold change /veh REEP3 (11722064_at) / RFU IGLL1 (11728026_x_at) / Fold change /veh IGLL1 (11728026_x_at): dose or concentration left out as unconfirmed
Conditions: MV-4-11 cells, 48 hours

## Nc1ncn([C@@H]2O[C@H](CO)[C@@H](O)[C@H]2O)c(=O)n1 [azacitidine]
  RFU KRT8 (11758188_x_at): 23.78 RFU
